Legend:
palatine mucosa of frog = assay: Ciliary movement of frog palatine mucosa, particle transport method (Example 3, Tables 1-3); format: cell-based, bull frog
Description: Bull frogs (furnished by Saitama Test Animal) weighing 300 to 450 g were used regardless of sex.
N-acetylneuraminic acid and calcium salt of N-acetylneuraminic acid (provided by Kanto Ishiseiyaku Kabushiki Kaisha), as well as acetylcholine chloride (furnished by Sigma Kabushiki Kaisha) were used as the test substances.
Mucociliary transport was measured by the particle transport method. After decapitation of a frog, the surface of the palatine mucosa was separated with minimized damage and of fixed to a cork plate in a Petri dish which was then filled with 20 ml of Ringer's solution (trishydrochloric acid). The palatine mucosa was left in this state for 30 minutes before the commencement of measurement. For measurement, the Ringer's solution was removed and fine pieces of cork (capable of passing pharmaceutical sieve No. 5 but not capable of passing No. 6) were placed on the surface of the palatine mucosa, and the time (in seconds) required for the cork piece to move 1 cm was measured. The duration of movement, i.e., moving speed, was measured also in the state immediately after the removal of the Ringer's solution or pharmaceutical solution.

[1] = test system: ciliated cells from human airway and frog palate; assay: Rotation of ciliated cell groups (Example 4); format: cell-based
Source text: Using ciliated cells from human airway and frog palate, rotation of cell groups due to ciliary beat was observed before and after application of N-acetylneuraminic acid and calcium salt of N-acetylneuraminic acid, in order to confirm the effect of these agents on the cilitated cells.
Human ciliated cells were collected from a normal trachea by means of a branchoscope, the ciliated cells being separated by rubbing the bronchus while observing through the branchoscope, while the collection of frog cilitated cells was conducted by rubbing the palatine mucosta, without being specially careful. […] The groups of cells were transferred to a cover slip and one drop of chicken plasma (prepared by Difco Company) and one drop of 50% chicken embryo extract were added to the cells, thus forming clots. The rotary motion in the clots was recorded by means of a video recorder and the number of rotations per minute was measured.

[2] = test system: sputum of patients with chronic obstructive lung disease on frog palatine mucosa; assay: Mucociliary transport rate (MTR) of treated sputum on frog palatine mucosa (Example 5); design: species or system human sputum; frog palatine mucosa; conditions: for MTR after treatment: 2 mg
Description: (§1) Mucociliary transport rate (hereinunder referred to as MTR), i.e. the rate of transport of sputum by cilia, was measured using frog palatine mucosa. At the same time, physicochemical properties of the sputum before and after application of N-acetylneuraminic acid were compared.
(§2) The sputum used as the specimens was collected from 12 samples of patients suffering from chronic obstructive lung disease. N-acetylneuraminic acid was added to the specimen sputum in the ratios of 5 mg/ml sputum and 1 mg/ml sputum, and the specimen was left for 1 hour at 4° C. before measurement. Sputum which has not been treated by N-acetylneuraminic acid was used as a comparison example. A palatine mucosa obtained from a decapitated frog head was kept at constant temperature and humidity until the mucus liquid of the frog itself depleted. The specimen sputum was placed on the dried palatine mucosa, and the speed of movement of the sputum was observed through a noumenal microscope, thus measuring the MTR. The pH value of the sputum was measured by means of an electronic model HM-SAp pH meter, while the spinnability was measured by a device developed by Nagaoka and Yamanaka (disclosed in Transactions of 2nd Symposium of Cough and sputum, published July 20, 1979). The yield value was measured by Dulfano's double-tube method which is shown in the American Review of Respiratory Diseases, Vol. 104, p88, 1971.

[3] = Physicochemical properties (pH, yield value, spinnability) of treated sputum (Example 5); design: species or system human; conditions: for Yield value after treatment / pH of sputum after treatment / Spinnability after treatment: 2 mg
Description: as §1, §2

[4] = Acute toxicity test of N-acetylneuraminic acid, mice (Example 6); design: species or system ICR mice; conditions: mouse, in vivo
Description: (§3) A test was conducted to examine the acute toxicity of N-acetylneuraminic acid, using mice and rats, by means of intravenous injection, subcutaneous injection, per os inhalation.
(§4) 13 to 15% (W/V) dissolved in distilled water
(§5) By Litchfield-Wilcoxon method.

[5] = Acute toxicity test of N-acetylneuraminic acid, rats (Example 6); format: in vivo, SD rats; conditions: rat, in vivo
Description: as §3
(§6) SD rats: 6 weeks old (7 weeks old in case of inhalation)
as §4, §5
(§7) Inhalation was conducted by 1hr exposure to mist.

rats = assay: as above; format: in vivo, SD rats; conditions: inhalation, 1hr exposure to mist
Description: as §3, §6, §4, §5, §7

[6] = sample 5 (viscous sputum, 2 ml), before 18

CC(=O)N[C@H]1[C@H]([C@H](O)[C@H](O)CO)OC(O)(C(=O)O)C[C@@H]1O (stereo partly shown) [N-acetylneuraminic acid]
Movement (palatine mucosa of frog; 10^-4 g/ml, frog number 1): 17.3 s/cm
Movement (palatine mucosa of frog; 10^-4 g/ml, frog number 2): 22.0 s/cm
Movement (palatine mucosa of frog; 10^-4 g/ml, frog number 3): 20.7 s/cm
Movement (palatine mucosa of frog; 10^-4 g/ml, frog number 4): 22.0 s/cm
Movement (palatine mucosa of frog; 10^-5 g/ml, frog number 1): 21.3 s/cm
Acceleration (palatine mucosa of frog; 10^-5 g/ml, frog number 1, control = 0): 33.4%
Movement (palatine mucosa of frog; 10^-5 g/ml, frog number 2): 27.3 s/cm
Acceleration (palatine mucosa of frog; 10^-5 g/ml, frog number 2, control = 0): 16.5%
Movement (palatine mucosa of frog; 10^-5 g/ml, frog number 3): 28.7 s/cm
Acceleration (palatine mucosa of frog; 10^-5 g/ml, frog number 3, control = 0): 28.2%
Movement (palatine mucosa of frog; 10^-5 g/ml, frog number 4): 24.7 s/cm
activation at 10 µg/mL (palatine mucosa of frog; 10^-5 g/ml, frog number 4, control = 0, read-out: Acceleration): 31.4%
Effect on ciliary movement of palatine mucosa (palatine mucosa of frog; Tables 1 and 3): acceleration of the ciliary movement of palatine mucosa in a certain dose-dependency
Ciliary movement promoting effect compared with acetylcholine (palatine mucosa of frog; acetylcholine control at 10^-5 and 10^-4): substantially the same ciliary movement promoting effect as the acetylcholine
Increase of rotation speed (revolutions per minute) over Medium 199 at plateau ([1]; 10^-3 to 10^-2 mg/ml, 5, 10 and 15 minutes after application): about 25%
Effect on rotary motion of the cilium cells ([1]; 10^-4 to 10^-1 mg/ml): gradually accelerated starting immediately after the application
Change of MTR of sputum ([2]; 1 mg/ml, samples with reduced spinnability): tendency to increased MTR
MTR after treatment ([2]; sample 1 (viscous sputum, 2 ml), before 19): 38 mm/min
MTR after treatment ([2]; sample 2 (viscous sputum, 2 ml), before 8): 19 mm/min
MTR after treatment ([2]; sample 3 (pus sputum, 2 ml), before 20): 27 mm/min
MTR after treatment ([2]; sample 4 (viscous sputum, 2 ml), before 25): 29 mm/min
MTR after treatment [2, 6]: 30 mm/min
MTR after treatment ([2]; sample 6 (viscous sputum, 2 ml), before 15): 18 mm/min
Change of spinnability of sputum ([3]; 1 mg/ml): five samples showed a reduction, while one sample showed a slight increase
Change of yield value of sputum ([3]; 1 mg/ml): Increase in the yield value was observed in three samples, while three samples showed a reduction. The yield value was unchanged in the remaining one sample
Change of sputum pH value ([3]; 1 mg/ml, six samples): five out of six samples treated with 1 mg/ml of N-acetylneuraminic acid showed a reduction in pH value (pH 7.31 0.40), while the remaining one sample showed a slight increase in pH value
Yield value after treatment ([3]; sample 1 (viscous sputum, 2 ml), before 3.7): 11.5 mmH2 O
pH of sputum after treatment ([3]; sample 1 (viscous sputum, 2 ml), before 7.72): 7.35
Spinnability after treatment ([3]; sample 1 (viscous sputum, 2 ml), before 55): 19 mm
Yield value after treatment ([3]; sample 2 (viscous sputum, 2 ml), before 0.1): 0.1 mmH2 O
pH of sputum after treatment ([3]; sample 2 (viscous sputum, 2 ml), before 7.52): 7.62
Spinnability after treatment ([3]; sample 2 (viscous sputum, 2 ml), before 10): 3 mm
Yield value after treatment ([3]; sample 3 (pus sputum, 2 ml), before 2.7): 0.7 mmH2 O
Spinnability after treatment ([3]; sample 3 (pus sputum, 2 ml), before 5): 2 mm
pH of sputum after treatment ([3]; sample 3 (pus sputum, 2 ml), before 7.98): 7.20
Yield value after treatment ([3]; sample 4 (viscous sputum, 2 ml), before 1.9): 3.2 mmH2 O
pH of sputum after treatment ([3]; sample 4 (viscous sputum, 2 ml), before 6.98): 6.84
Spinnability after treatment ([3]; sample 4 (viscous sputum, 2 ml), before 22): 12 mm
Yield value after treatment ([3]; sample 5 (viscous sputum, 2 ml), before 2.2): 3.1 mmH2 O
pH of sputum after treatment ([3]; sample 5 (viscous sputum, 2 ml), before 7.24): 6.94
Spinnability after treatment [3, 6]: 16 mm
pH of sputum after treatment ([3]; sample 6 (viscous sputum, 2 ml), before 8.16): 7.88
Yield value after treatment ([3]; sample 6 (viscous sputum, 2 ml), before 14.3): 7.5 mmH2 O
Spinnability after treatment ([3]; sample 6 (viscous sputum, 2 ml), before 22): 26 mm
LD50 at 336 h ([4]; iv, mice F, 95% 2137-2925): 2500 mg/kg
LD50 at 336 h ([4]; iv, mice M, 95% 1441-2008): 1700 mg/kg
LD50 at 336 h ([4]; po, per os, mice F): > 5000 mg/kg
LD50 at 336 h ([4]; po, per os, mice M): > 5000 mg/kg
LD50 at 336 h ([4]; sc, subcutaneous, mice F): > 5000 mg/kg
LD50 at 336 h ([4]; sc, subcutaneous, mice M): > 5000 mg/kg
LD50 at 336 h ([5]; iv, rats F, 95% 1741-2030): 1880 mg/kg
LD50 at 336 h ([5]; iv, rats M, 95% 1748-2001): 1870 mg/kg
LD50 at 336 h ([5]; po, per os, rats F): > 5000 mg/kg
LD50 at 336 h ([5]; po, per os, rats M): > 5000 mg/kg
LD50 at 336 h ([5]; sc, subcutaneous, rats F): > 5000 mg/kg
LD50 at 336 h ([5]; sc, subcutaneous, rats M): > 5000 mg/kg
LD50 (rats; rats F): > 4.33 g/m^3
LD50 (rats; rats M): > 4.33 g/m^3
